{"source": "patent US20110086759A1", "about": "“CHEMICAL COMPOUNDS” (SYNGENTA CROP PROTECTION, INC., priority 2007, published 2011)", "assay_type_in_all_cases": "in vivo", "key": {"[1]": {"test_system": "Alopecurus myosuroides (ALOMY)", "assay": "Pre-emergence biological efficacy, glasshouse pot test", "conditions": "312 h, pre-emergence, 1,000 g/ha, evaluated after 13 days (100=total damage; 0=no damage), read-out: Percentage damage ALOMY", "description": "(§1) Seeds of Alopecurus myosuroides (ALOMY), Setaria faberi (SETFA), Echinochloa crus-galli (ECHCG), Solanum nigrum (SOLNI), Amaranthus retoflexus (AMARE) and Ipomea hederaceae (IPOHE) were sown in standard soil in pots. After cultivation for one day under controlled conditions in a glasshouse (at 24/16° C., day/night; 14 hours light; 65% humidity), the plants were sprayed with an aqueous spray solution derived from the formulation of the technical active ingredient in acetone/water (50:50) solution containing 0.5% Tween 20 (polyoxyethelyene sorbitan monolaurate, CAS RN 9005-64-5) to give a final dose of 1000 or 250 g/ha of test compound.\n(§2) The test plants were then grown under controlled conditions in the glasshouse (at 24/16° C., day/night; 14 hours light; 65% humidity) and watered twice daily. After 13 days the test was evaluated (100=total damage to plant; 0=no damage to plant)."}, "[2]": {"test_system": "Amaranthus retoflexus (AMARE)", "assay": "Pre-emergence biological efficacy, glasshouse pot test", "conditions": "Amaranthus retroflexus, 312 h; pre-emergence, 1,000 g/ha, evaluated after 13 days (100=total damage; 0=no damage); read-out: Percentage damage AMARE", "description": "as §1, §2"}, "[3]": {"test_system": "Echinochloa crus-galli (ECHCG)", "assay": "Pre-emergence biological efficacy, glasshouse pot test", "conditions": "312 h, pre-emergence, 1,000 g/ha, evaluated after 13 days (100=total damage; 0=no damage), read-out: Percentage damage ECHCG", "description": "as §1, §2"}, "[4]": {"test_system": "Ipomea hederaceae (IPOHE)", "assay": "Pre-emergence biological efficacy, glasshouse pot test", "conditions": "Ipomoea hederacea, 312 h; pre-emergence, 1,000 g/ha, evaluated after 13 days (100=total damage; 0=no damage); read-out: Percentage damage IPOHE", "description": "as §1, §2"}, "Setaria faberi (SETFA) [5]": {"test_system": "Setaria faberi (SETFA)", "assay": "Pre-emergence biological efficacy, glasshouse pot test", "conditions": "312 h, pre-emergence, 1,000 g/ha, evaluated after 13 days (100=total damage; 0=no damage), read-out: Percentage damage SETFA", "description": "as §1, §2"}, "Solanum nigrum (SOLNI) [6]": {"test_system": "Solanum nigrum (SOLNI)", "assay": "Pre-emergence biological efficacy, glasshouse pot test", "conditions": "312 h, pre-emergence, 1,000 g/ha, evaluated after 13 days (100=total damage; 0=no damage), read-out: Percentage damage SOLNI", "description": "as §1, §2"}, "[7]": {"test_system": "Alopecurus myosuroides (ALOMY)", "assay": "Post-emergence biological efficacy, glasshouse pot test", "conditions": "312 h, post-emergence, 1,000 g/ha, evaluated after 13 days (100=total damage; 0=no damage), read-out: Percentage damage caused to weed species, ALOMY", "description": "as §1, with “8 days” for “one day”\n(§3) The test plants were then grown on under controlled conditions in a glasshouse (at 24/16° C., day/night; 14 hours light; 65% humidity) and watered twice daily. After 13 days the test was evaluated (100=total damage to plant; 0=no damage to plant)."}, "[8]": {"test_system": "Amaranthus retoflexus (AMARE)", "assay": "Post-emergence biological efficacy, glasshouse pot test", "conditions": "Amaranthus retroflexus, 312 h; post-emergence, 1,000 g/ha, evaluated after 13 days (100=total damage; 0=no damage); read-out: Percentage damage caused to weed species, AMARE", "description": "as §1, with “8 days” for “one day”\nas §3"}, "[9]": {"test_system": "Echinochloa crus-galli (ECHCG)", "assay": "Post-emergence biological efficacy, glasshouse pot test", "conditions": "312 h, post-emergence, 1,000 g/ha, evaluated after 13 days (100=total damage; 0=no damage), read-out: Percentage damage caused to weed species, ECHCG", "description": "as §1, with “8 days” for “one day”\nas §3"}, "[10]": {"test_system": "Ipomea hederaceae (IPOHE)", "assay": "Post-emergence biological efficacy, glasshouse pot test", "conditions": "Ipomoea hederacea, 312 h; post-emergence, 1,000 g/ha, evaluated after 13 days (100=total damage; 0=no damage); read-out: Percentage damage caused to weed species, IPOHE", "description": "as §1, with “8 days” for “one day”\nas §3"}, "Setaria faberi (SETFA) [11]": {"test_system": "Setaria faberi (SETFA)", "assay": "Post-emergence biological efficacy, glasshouse pot test", "conditions": "312 h, post-emergence, 1,000 g/ha, evaluated after 13 days (100=total damage; 0=no damage), read-out: Percentage damage caused to weed species, SETFA", "description": "as §1, with “8 days” for “one day”\nas §3"}, "Solanum nigrum (SOLNI) [12]": {"test_system": "Solanum nigrum (SOLNI)", "assay": "Post-emergence biological efficacy, glasshouse pot test", "conditions": "312 h, post-emergence, 1,000 g/ha, evaluated after 13 days (100=total damage; 0=no damage), read-out: Percentage damage caused to weed species, SOLNI", "description": "as §1, with “8 days” for “one day”\nas §3"}}, "data": [{"compound": "COC(=O)c1nc(C2CC2)nc(N[C@H]2COC[C@H]2O)c1Cl", "note": "[4-38 (S,S), 5-Chloro-2-cyclopropyl-4-[(3S, 4S)-4-hydroxytetra-hydrofuran-3-ylamino]-6-methoxycarbonyl-pyrimidine]", "values": [{"measurement": "pest or weed control at 1000 g/ha", "setting": "[1]", "result": 20, "unit": "%"}, {"measurement": "pest or weed control at 1000 g/ha", "setting": "[2]", "result": 100, "unit": "%"}, {"measurement": "pest or weed control at 1000 g/ha", "setting": "[3]", "result": 30, "unit": "%"}, {"measurement": "pest or weed control at 1000 g/ha", "setting": "[4]", "result": 70, "unit": "%"}, {"measurement": "pest or weed control at 1000 g/ha", "setting": "Setaria faberi (SETFA) [5]", "result": 30, "unit": "%"}, {"measurement": "pest or weed control at 1000 g/ha", "setting": "Solanum nigrum (SOLNI) [6]", "result": 80, "unit": "%"}, {"measurement": "pest or weed control at 1000 g/ha", "setting": "[7]", "result": 30, "unit": "%"}, {"measurement": "pest or weed control at 1000 g/ha", "setting": "[8]", "result": 100, "unit": "%"}, {"measurement": "pest or weed control at 1000 g/ha", "setting": "[9]", "result": 10, "unit": "%"}, {"measurement": "pest or weed control at 1000 g/ha", "setting": "[10]", "result": 30, "unit": "%"}, {"measurement": "pest or weed control at 1000 g/ha", "setting": "Setaria faberi (SETFA) [11]", "result": 60, "unit": "%"}, {"measurement": "pest or weed control at 1000 g/ha", "setting": "Solanum nigrum (SOLNI) [12]", "result": 80, "unit": "%"}]}, {"compound": "COC(=O)c1nc(C2CC2)nc(N[C@@H](C)C2CCCCC2)c1Cl", "note": "[4-173 (S), 5-Chloro-4-[(1S)-1-(cyclohexyl)ethyl-amino]-2-cyclopropyl-6-methoxycarbonyl-pyrimidine]", "values": [{"measurement": "pest or weed control at 1000 g/ha", "setting": "[1]", "result": 0, "unit": "%"}, {"measurement": "pest or weed control at 1000 g/ha", "setting": "[2]", "result": 20, "unit": "%"}, {"measurement": "pest or weed control at 1000 g/ha", "setting": "[3]", "result": 0, "unit": "%"}, {"measurement": "pest or weed control at 1000 g/ha", "setting": "[4]", "result": 0, "unit": "%"}, {"measurement": "pest or weed control at 1000 g/ha", "setting": "Setaria faberi (SETFA) [5]", "result": 0, "unit": "%"}, {"measurement": "pest or weed control at 1000 g/ha", "setting": "Solanum nigrum (SOLNI) [6]", "result": 0, "unit": "%"}, {"measurement": "pest or weed control at 1000 g/ha", "setting": "[7]", "result": 0, "unit": "%"}, {"measurement": "pest or weed control at 1000 g/ha", "setting": "[8]", "result": 20, "unit": "%"}, {"measurement": "pest or weed control at 1000 g/ha", "setting": "[9]", "result": 0, "unit": "%"}, {"measurement": "pest or weed control at 1000 g/ha", "setting": "[10]", "result": 40, "unit": "%"}, {"measurement": "pest or weed control at 1000 g/ha", "setting": "Setaria faberi (SETFA) [11]", "result": 0, "unit": "%"}, {"measurement": "pest or weed control at 1000 g/ha", "setting": "Solanum nigrum (SOLNI) [12]", "result": 20, "unit": "%"}]}, {"compound": "COC(=O)c1nc(C2CC2)nc(N[C@@H](C)c2cccc(OC)c2)c1Cl", "note": "[4-180 (S), (S)-5-Chloro-2-cyclopropyl-6-methoxycarbonyl-4-[1-(3-methoxy-phenyl)ethylamino]-pyrimidine]", "values": [{"measurement": "pest or weed control at 1000 g/ha", "setting": "[1]", "result": 0, "unit": "%"}, {"measurement": "pest or weed control at 1000 g/ha", "setting": "[2]", "result": 20, "unit": "%"}, {"measurement": "pest or weed control at 1000 g/ha", "setting": "[3]", "result": 0, "unit": "%"}, {"measurement": "pest or weed control at 1000 g/ha", "setting": "[4]", "result": 80, "unit": "%"}, {"measurement": "pest or weed control at 1000 g/ha", "setting": "Setaria faberi (SETFA) [5]", "result": 0, "unit": "%"}, {"measurement": "pest or weed control at 1000 g/ha", "setting": "Solanum nigrum (SOLNI) [6]", "result": 10, "unit": "%"}, {"measurement": "pest or weed control at 1000 g/ha", "setting": "[7]", "result": 20, "unit": "%"}, {"measurement": "pest or weed control at 1000 g/ha", "setting": "[8]", "result": 80, "unit": "%"}, {"measurement": "pest or weed control at 1000 g/ha", "setting": "[9]", "result": 50, "unit": "%"}, {"measurement": "pest or weed control at 1000 g/ha", "setting": "[10]", "result": 80, "unit": "%"}, {"measurement": "pest or weed control at 1000 g/ha", "setting": "Setaria faberi (SETFA) [11]", "result": 30, "unit": "%"}, {"measurement": "pest or weed control at 1000 g/ha", "setting": "Solanum nigrum (SOLNI) [12]", "result": 70, "unit": "%"}]}, {"compound": "COC(=O)c1nc(C2CC2)nc(N[C@@H](C)c2ccc(OC)cc2)c1Cl", "note": "[4-181 (S), (S)-5-Chloro-2-cyclopropyl-6-methoxycarbonyl-4-[1-(4-methoxy-phenyl)ethylamino]-pyrimidine]", "values": [{"measurement": "pest or weed control at 1000 g/ha", "setting": "[1]", "result": 20, "unit": "%"}, {"measurement": "pest or weed control at 1000 g/ha", "setting": "[2]", "result": 60, "unit": "%"}, {"measurement": "pest or weed control at 1000 g/ha", "setting": "[3]", "result": 50, "unit": "%"}, {"measurement": "pest or weed control at 1000 g/ha", "setting": "[4]", "result": 80, "unit": "%"}, {"measurement": "pest or weed control at 1000 g/ha", "setting": "Setaria faberi (SETFA) [5]", "result": 0, "unit": "%"}, {"measurement": "pest or weed control at 1000 g/ha", "setting": "Solanum nigrum (SOLNI) [6]", "result": 60, "unit": "%"}, {"measurement": "pest or weed control at 1000 g/ha", "setting": "[7]", "result": 30, "unit": "%"}, {"measurement": "pest or weed control at 1000 g/ha", "setting": "[8]", "result": 100, "unit": "%"}, {"measurement": "pest or weed control at 1000 g/ha", "setting": "[9]", "result": 50, "unit": "%"}, {"measurement": "pest or weed control at 1000 g/ha", "setting": "[10]", "result": 90, "unit": "%"}, {"measurement": "pest or weed control at 1000 g/ha", "setting": "Setaria faberi (SETFA) [11]", "result": 40, "unit": "%"}, {"measurement": "pest or weed control at 1000 g/ha", "setting": "Solanum nigrum (SOLNI) [12]", "result": 90, "unit": "%"}]}, {"compound": "COC(=O)c1nc(C2CC2)nc(N[C@H](C)c2cccc3ccccc23)c1Cl", "note": "[4-184 (R), (R)-5-Chloro-2-cyclopropyl-6-methoxycarbonyl-4-[1-(naphth-1-yl)ethylamino]-pyrimidine]", "values": [{"measurement": "pest or weed control at 1000 g/ha", "setting": "[1]", "result": 0, "unit": "%"}, {"measurement": "pest or weed control at 1000 g/ha", "setting": "[2]", "result": 0, "unit": "%"}, {"measurement": "pest or weed control at 1000 g/ha", "setting": "[3]", "result": 0, "unit": "%"}, {"measurement": "pest or weed control at 1000 g/ha", "setting": "[4]", "result": 0, "unit": "%"}, {"measurement": "pest or weed control at 1000 g/ha", "setting": "Setaria faberi (SETFA) [5]", "result": 0, "unit": "%"}, {"measurement": "pest or weed control at 1000 g/ha", "setting": "Solanum nigrum (SOLNI) [6]", "result": 0, "unit": "%"}, {"measurement": "pest or weed control at 1000 g/ha", "setting": "[7]", "result": 10, "unit": "%"}, {"measurement": "pest or weed control at 1000 g/ha", "setting": "[8]", "result": 80, "unit": "%"}, {"measurement": "pest or weed control at 1000 g/ha", "setting": "[9]", "result": 40, "unit": "%"}, {"measurement": "pest or weed control at 1000 g/ha", "setting": "[10]", "result": 70, "unit": "%"}, {"measurement": "pest or weed control at 1000 g/ha", "setting": "Setaria faberi (SETFA) [11]", "result": 20, "unit": "%"}, {"measurement": "pest or weed control at 1000 g/ha", "setting": "Solanum nigrum (SOLNI) [12]", "result": 60, "unit": "%"}]}]}
